Test results taken from the kinase profiling compilation of Christmann-Franck et al. (2016).

Assays:
Assay in all cases: KINOMEscan competition binding
Settings in all cases: compound 10.0 µM
[1] = target: BLK (human) (UniProt P51451)
[2] = target: BMPR1B (human) (UniProt O00238)
[3] = target: BRSK1 (human) (UniProt Q8TDC3)
[4] = target: BRSK2 (human) (UniProt Q8IWQ3)
[5] = target: CAMK1D (human) (UniProt Q8IU85)
[6] = target: CDC42BPB (human) (UniProt Q9Y5S2)
[7] = target: CDK15 (human) (UniProt Q96Q40)
[8] = target: CLK1 (human) (UniProt P49759)
[9] = target: CSNK1G2 (human) (UniProt P78368)
[10] = target: CSNK2A1 (human) (UniProt P68400)
[11] = target: DCLK2 (human) (UniProt Q8N568)
Chain of DCLK2 (human) (Q8N568 whole entry, looked up): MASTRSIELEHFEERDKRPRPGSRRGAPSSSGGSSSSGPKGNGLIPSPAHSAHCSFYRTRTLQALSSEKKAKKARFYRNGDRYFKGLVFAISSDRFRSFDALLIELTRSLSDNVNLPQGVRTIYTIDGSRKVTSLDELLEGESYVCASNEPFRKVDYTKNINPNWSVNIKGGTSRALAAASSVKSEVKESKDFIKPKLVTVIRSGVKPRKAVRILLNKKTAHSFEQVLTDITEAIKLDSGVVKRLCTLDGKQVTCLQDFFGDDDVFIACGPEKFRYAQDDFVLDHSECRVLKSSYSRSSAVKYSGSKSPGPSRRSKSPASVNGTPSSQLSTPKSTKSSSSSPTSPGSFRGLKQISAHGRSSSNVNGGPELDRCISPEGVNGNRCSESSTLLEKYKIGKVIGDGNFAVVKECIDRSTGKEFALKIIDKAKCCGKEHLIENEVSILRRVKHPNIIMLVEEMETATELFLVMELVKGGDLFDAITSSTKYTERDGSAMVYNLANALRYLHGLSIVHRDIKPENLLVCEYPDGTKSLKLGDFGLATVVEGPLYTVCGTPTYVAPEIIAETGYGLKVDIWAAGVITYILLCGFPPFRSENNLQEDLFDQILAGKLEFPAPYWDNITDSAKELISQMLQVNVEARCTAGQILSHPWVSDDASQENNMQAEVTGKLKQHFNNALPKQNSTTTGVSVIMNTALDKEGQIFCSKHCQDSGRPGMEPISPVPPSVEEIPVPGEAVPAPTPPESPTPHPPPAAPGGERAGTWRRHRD

[12] = target: EPHA2 (human) (UniProt P29317)
[13] = target: EPHA7 (human) (UniProt Q15375)
[14] = target: EPHB1 (human) (UniProt P54762)
[15] = target: EPHB3 (human) (UniProt P54753)
Chain of EPHB3 (human) (P54753 whole entry, looked up): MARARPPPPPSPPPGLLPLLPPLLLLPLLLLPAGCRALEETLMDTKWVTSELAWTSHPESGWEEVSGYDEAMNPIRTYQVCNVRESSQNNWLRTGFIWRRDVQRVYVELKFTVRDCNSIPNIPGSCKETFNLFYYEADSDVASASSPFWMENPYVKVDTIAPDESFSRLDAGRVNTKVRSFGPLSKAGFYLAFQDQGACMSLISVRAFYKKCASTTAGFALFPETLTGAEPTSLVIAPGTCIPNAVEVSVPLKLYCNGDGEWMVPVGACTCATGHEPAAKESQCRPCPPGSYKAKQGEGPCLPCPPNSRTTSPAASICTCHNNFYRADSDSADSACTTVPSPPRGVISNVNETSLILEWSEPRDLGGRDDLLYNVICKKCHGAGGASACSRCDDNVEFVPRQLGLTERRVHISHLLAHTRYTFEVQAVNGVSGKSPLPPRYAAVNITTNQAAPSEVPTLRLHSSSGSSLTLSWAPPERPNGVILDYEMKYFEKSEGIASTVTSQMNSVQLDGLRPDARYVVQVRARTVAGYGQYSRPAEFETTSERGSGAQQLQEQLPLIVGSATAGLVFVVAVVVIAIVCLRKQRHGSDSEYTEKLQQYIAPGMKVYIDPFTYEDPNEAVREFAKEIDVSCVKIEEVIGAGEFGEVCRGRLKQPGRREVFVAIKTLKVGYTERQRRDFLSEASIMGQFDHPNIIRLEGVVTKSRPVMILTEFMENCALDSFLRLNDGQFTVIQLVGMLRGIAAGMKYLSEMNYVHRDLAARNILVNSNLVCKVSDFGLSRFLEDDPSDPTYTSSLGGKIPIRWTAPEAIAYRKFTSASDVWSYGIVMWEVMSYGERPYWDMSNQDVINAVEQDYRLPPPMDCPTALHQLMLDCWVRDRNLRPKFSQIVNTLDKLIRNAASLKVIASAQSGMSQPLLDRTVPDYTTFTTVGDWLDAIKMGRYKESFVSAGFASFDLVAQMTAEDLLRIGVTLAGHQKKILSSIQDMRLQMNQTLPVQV

[16] = target: FLT1 (human) (UniProt P17948)
[17] = target: ITK (human) (UniProt Q08881)
[18] = target: MAPK3 (human) (UniProt P27361)
[19] = target: MAPK6 (human) (UniProt Q16659)
Chain of MAPK6 (human) (Q16659 whole entry, looked up): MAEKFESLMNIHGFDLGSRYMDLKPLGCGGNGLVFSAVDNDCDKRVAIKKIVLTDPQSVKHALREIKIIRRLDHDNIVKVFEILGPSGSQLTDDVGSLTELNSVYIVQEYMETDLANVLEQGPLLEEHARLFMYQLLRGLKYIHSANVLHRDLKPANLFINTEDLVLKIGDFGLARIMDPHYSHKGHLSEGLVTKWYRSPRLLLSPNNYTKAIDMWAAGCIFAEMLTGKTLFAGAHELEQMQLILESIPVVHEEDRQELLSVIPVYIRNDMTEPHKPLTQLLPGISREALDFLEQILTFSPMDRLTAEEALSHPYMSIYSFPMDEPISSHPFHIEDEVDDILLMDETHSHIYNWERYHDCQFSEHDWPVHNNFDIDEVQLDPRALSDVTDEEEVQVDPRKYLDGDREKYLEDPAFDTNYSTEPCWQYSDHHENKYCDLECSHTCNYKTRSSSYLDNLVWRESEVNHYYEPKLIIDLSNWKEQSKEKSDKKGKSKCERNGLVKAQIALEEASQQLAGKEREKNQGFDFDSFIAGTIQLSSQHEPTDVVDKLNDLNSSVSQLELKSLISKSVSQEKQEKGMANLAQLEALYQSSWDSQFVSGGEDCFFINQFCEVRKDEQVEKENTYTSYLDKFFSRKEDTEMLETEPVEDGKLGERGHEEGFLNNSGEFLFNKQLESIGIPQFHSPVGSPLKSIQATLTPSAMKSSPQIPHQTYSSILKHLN

[20] = target: MAPK9 (human) (UniProt P45984)
[21] = target: MELK (human) (UniProt Q14680)
[22] = target: NEK7 (human) (UniProt Q8TDX7)
Chain of NEK7 (human) (Q8TDX7 whole entry, looked up): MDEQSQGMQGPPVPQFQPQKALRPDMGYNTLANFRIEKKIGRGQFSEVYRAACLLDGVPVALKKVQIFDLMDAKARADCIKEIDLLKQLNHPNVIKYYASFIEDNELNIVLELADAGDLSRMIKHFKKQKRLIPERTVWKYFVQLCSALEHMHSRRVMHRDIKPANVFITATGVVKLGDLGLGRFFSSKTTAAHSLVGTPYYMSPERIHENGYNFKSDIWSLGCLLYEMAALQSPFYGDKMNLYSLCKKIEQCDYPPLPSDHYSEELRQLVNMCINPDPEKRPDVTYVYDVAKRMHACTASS

[23] = target: NEK9 (human) (UniProt Q8TD19)
[24] = target: PHKG1 (human) (UniProt Q16816)
Chain of PHKG1 (human) (Q16816 whole entry, looked up): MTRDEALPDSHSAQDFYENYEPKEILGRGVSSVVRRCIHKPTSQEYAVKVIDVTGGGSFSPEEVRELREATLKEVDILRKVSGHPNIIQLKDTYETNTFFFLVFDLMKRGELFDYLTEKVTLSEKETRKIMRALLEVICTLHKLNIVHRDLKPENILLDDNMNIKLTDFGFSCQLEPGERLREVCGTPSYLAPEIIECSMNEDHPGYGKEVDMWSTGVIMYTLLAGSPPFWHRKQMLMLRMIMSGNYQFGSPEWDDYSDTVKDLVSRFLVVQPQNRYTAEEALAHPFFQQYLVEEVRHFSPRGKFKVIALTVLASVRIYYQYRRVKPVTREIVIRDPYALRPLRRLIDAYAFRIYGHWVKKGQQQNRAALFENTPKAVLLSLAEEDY

[25] = target: PRKAA1 (human) (UniProt Q13131)
[26] = target: PRKCQ (human) (UniProt Q04759)
Chain of PRKCQ (human) (Q04759 whole entry, looked up): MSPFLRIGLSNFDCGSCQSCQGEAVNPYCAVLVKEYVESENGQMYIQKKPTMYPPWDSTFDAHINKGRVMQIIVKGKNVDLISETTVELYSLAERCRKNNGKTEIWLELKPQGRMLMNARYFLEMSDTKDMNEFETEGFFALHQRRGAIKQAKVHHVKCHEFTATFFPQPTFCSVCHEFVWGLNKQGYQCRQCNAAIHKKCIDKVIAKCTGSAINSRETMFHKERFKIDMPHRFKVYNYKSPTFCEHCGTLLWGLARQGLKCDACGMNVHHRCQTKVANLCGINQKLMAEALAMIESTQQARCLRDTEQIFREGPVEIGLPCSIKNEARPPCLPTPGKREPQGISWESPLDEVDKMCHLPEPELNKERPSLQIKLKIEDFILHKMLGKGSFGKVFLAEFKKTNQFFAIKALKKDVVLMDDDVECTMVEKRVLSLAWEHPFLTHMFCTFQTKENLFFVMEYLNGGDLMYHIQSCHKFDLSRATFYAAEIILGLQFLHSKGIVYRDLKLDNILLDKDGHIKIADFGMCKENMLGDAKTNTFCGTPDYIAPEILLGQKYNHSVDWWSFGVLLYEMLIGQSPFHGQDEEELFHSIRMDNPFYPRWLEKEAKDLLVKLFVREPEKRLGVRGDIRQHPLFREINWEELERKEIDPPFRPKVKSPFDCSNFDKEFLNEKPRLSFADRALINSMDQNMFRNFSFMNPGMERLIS

[27] = target: RIOK1 (human) (UniProt Q9BRS2)
[28] = target: RIOK2 (human) (UniProt Q9BVS4)
[29] = target: RIPK1 (human) (UniProt Q13546)
[30] = target: RPS6KA2 KD1 (human) (UniProt Q15349)
[31] = target: SLK (human) (UniProt Q9H2G2)
[32] = target: SRC (human) (UniProt P12931)
[33] = target: SRMS (human) (UniProt Q9H3Y6)
[34] = target: STK25 (human) (UniProt O00506)
[35] = target: STK33 (human) (UniProt Q9BYT3)
[36] = target: TEC (human) (UniProt P42680)
Chain of TEC (human) (P42680 whole entry, looked up): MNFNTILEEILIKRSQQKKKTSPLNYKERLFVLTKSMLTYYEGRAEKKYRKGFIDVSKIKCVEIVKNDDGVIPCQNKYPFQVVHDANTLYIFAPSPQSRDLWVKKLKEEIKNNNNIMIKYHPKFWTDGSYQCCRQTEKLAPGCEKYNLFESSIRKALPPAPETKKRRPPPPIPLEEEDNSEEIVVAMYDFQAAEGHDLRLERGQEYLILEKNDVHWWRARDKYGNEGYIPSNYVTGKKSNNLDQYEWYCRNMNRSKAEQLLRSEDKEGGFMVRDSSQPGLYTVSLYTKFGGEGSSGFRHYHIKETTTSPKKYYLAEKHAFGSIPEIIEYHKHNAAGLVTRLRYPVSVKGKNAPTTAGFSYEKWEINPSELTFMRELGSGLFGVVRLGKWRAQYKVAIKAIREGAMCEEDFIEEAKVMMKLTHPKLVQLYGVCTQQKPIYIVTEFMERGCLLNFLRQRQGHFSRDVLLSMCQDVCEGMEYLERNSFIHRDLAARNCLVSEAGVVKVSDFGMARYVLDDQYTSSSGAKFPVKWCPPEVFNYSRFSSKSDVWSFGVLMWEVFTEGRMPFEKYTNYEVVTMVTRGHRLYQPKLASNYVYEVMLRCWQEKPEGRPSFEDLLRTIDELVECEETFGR

[37] = target: ULK1 (human) (UniProt O75385)
[38] = target: ULK3 (human) (UniProt Q6PHR2)
[39] = target: WEE1 (human) (UniProt P30291)
[40] = target: ZAP70 (human) (UniProt P43403)

Chain of BLK (human) (P51451 whole entry, looked up): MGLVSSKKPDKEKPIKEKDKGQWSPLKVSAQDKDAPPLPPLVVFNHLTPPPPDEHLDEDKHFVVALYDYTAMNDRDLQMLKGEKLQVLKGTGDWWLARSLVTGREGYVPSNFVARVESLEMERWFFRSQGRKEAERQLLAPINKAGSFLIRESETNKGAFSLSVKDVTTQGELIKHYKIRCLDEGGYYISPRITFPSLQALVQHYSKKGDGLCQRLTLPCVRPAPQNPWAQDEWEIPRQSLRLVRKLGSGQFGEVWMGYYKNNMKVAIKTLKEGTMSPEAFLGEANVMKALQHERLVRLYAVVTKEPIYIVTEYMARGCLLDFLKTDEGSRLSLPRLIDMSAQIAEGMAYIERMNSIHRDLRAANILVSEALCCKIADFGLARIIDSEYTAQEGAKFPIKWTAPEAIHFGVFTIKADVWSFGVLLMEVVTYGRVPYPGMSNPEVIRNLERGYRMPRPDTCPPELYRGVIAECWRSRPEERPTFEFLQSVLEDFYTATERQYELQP

## CCN1CCN(Cc2ccc(Nc3ncc4c(n3)N(C)c3ccccc3C(=O)N4C)cc2C(F)(F)F)CC1
[1]
  kinase still bound, per cent of control: 8.3%
[2]
  kinase still bound, per cent of control: 53%
[3]
  kinase still bound, per cent of control: 41%
[4]
  kinase still bound, per cent of control: 42%
[5]
  kinase still bound, per cent of control: 76%
[6]
  kinase still bound, per cent of control: 99%
[7]
  kinase still bound, per cent of control: 76%
[8]
  kinase still bound, per cent of control: 86%
[9]
  kinase still bound, per cent of control: 8.9%
[10]
  kinase still bound, per cent of control: 79%
[11]
  kinase still bound, per cent of control: 1.3%
[12]
  kinase still bound, per cent of control: 83%
[13]
  kinase still bound, per cent of control: 100%
[14]
  kinase still bound, per cent of control: 100%
[15]
  kinase still bound, per cent of control: 80%
[16]
  kinase still bound, per cent of control: 100%
[17]
  kinase still bound, per cent of control: 100%
[18]
  kinase still bound, per cent of control: 99%
[19]
  kinase still bound, per cent of control: 20%
[20]
  kinase still bound, per cent of control: 57%
[21]
  kinase still bound, per cent of control: 75%
[22]
  kinase still bound, per cent of control: 88%
[23]
  kinase still bound, per cent of control: 72%
[24]
  kinase still bound, per cent of control: 100%
[25]
  kinase still bound, per cent of control: 2.4%
[26]
  kinase still bound, per cent of control: 100%
[27]
  kinase still bound, per cent of control: 33%
[28]
  kinase still bound, per cent of control: 100%
[29]
  kinase still bound, per cent of control: 24%
[30]
  kinase still bound, per cent of control: 37%
[31]
  kinase still bound, per cent of control: 2.4%
[32]
  kinase still bound, per cent of control: 2%
[33]
  kinase still bound, per cent of control: 54%
[34]
  kinase still bound, per cent of control: 47%
[35]
  kinase still bound, per cent of control: 36%
[36]
  kinase still bound, per cent of control: 99%
[37]
  kinase still bound, per cent of control: 0%
[38]
  kinase still bound, per cent of control: 7.4%
[39]
  kinase still bound, per cent of control: 91%
[40]
  kinase still bound, per cent of control: 90%

## C=CC(=O)Nc1cc(NC(=O)c2ccc(C)c(NC(=O)c3ccno3)c2)cc(C(F)(F)F)c1
[1]
  kinase still bound, per cent of control: 97%
[2]
  kinase still bound, per cent of control: 100%
[3]
  kinase still bound, per cent of control: 100%
[4]
  kinase still bound, per cent of control: 100%
[5]
  kinase still bound, per cent of control: 83%
[6]
  kinase still bound, per cent of control: 91%
[7]
  kinase still bound, per cent of control: 93%
[8]
  kinase still bound, per cent of control: 93%
[9]
  kinase still bound, per cent of control: 100%
[10]
  kinase still bound, per cent of control: 100%
[11]
  kinase still bound, per cent of control: 100%
[12]
  kinase still bound, per cent of control: 28%
[13]
  kinase still bound, per cent of control: 77%
[14]
  kinase still bound, per cent of control: 79%
[15]
  kinase still bound, per cent of control: 99%
[16]
  kinase still bound, per cent of control: 100%
[17]
  kinase still bound, per cent of control: 93%
[18]
  kinase still bound, per cent of control: 97%
[19]
  kinase still bound, per cent of control: 100%
[20]
  kinase still bound, per cent of control: 94%
[21]
  kinase still bound, per cent of control: 100%
[22]
  kinase still bound, per cent of control: 100%
[23]
  kinase still bound, per cent of control: 100%
[24]
  kinase still bound, per cent of control: 92%
[25]
  kinase still bound, per cent of control: 100%
[26]
  kinase still bound, per cent of control: 100%
[27]
  kinase still bound, per cent of control: 100%
[28]
  kinase still bound, per cent of control: 92%
[29]
  kinase still bound, per cent of control: 100%
[30]
  kinase still bound, per cent of control: 100%
[31]
  kinase still bound, per cent of control: 100%
[32]
  kinase still bound, per cent of control: 49%
[33]
  kinase still bound, per cent of control: 77%
[34]
  kinase still bound, per cent of control: 100%
[35]
  kinase still bound, per cent of control: 100%
[36]
  kinase still bound, per cent of control: 100%
[37]
  kinase still bound, per cent of control: 100%
[38]
  kinase still bound, per cent of control: 97%
[39]
  kinase still bound, per cent of control: 100%
[40]
  kinase still bound, per cent of control: 54%

## Nc1ccc(-c2ccc3ncc4ccc(=O)n(-c5cccc(C(F)(F)F)c5)c4c3c2)cn1
[1]
  kinase still bound, per cent of control: 98%
[2]
  kinase still bound, per cent of control: 86%
[3]
  kinase still bound, per cent of control: 88%
[4]
  kinase still bound, per cent of control: 100%
[5]
  kinase still bound, per cent of control: 100%
[6]
  kinase still bound, per cent of control: 96%
[7]
  kinase still bound, per cent of control: 94%
[8]
  kinase still bound, per cent of control: 12%
[9]
  kinase still bound, per cent of control: 100%
[10]
  kinase still bound, per cent of control: 79%
[11]
  kinase still bound, per cent of control: 98%
[12]
  kinase still bound, per cent of control: 99%
[13]
  kinase still bound, per cent of control: 100%
[14]
  kinase still bound, per cent of control: 100%
[15]
  kinase still bound, per cent of control: 100%
[16]
  kinase still bound, per cent of control: 100%
[17]
  kinase still bound, per cent of control: 100%
[18]
  kinase still bound, per cent of control: 100%
[19]
  kinase still bound, per cent of control: 62%
[20]
  kinase still bound, per cent of control: 89%
[21]
  kinase still bound, per cent of control: 50%
[22]
  kinase still bound, per cent of control: 82%
[23]
  kinase still bound, per cent of control: 100%
[24]
  kinase still bound, per cent of control: 100%
[25]
  kinase still bound, per cent of control: 100%
[26]
  kinase still bound, per cent of control: 100%
[27]
  kinase still bound, per cent of control: 65%
[28]
  kinase still bound, per cent of control: 70%
[29]
  kinase still bound, per cent of control: 100%
[30]
  kinase still bound, per cent of control: 100%
[31]
  kinase still bound, per cent of control: 100%
[32]
  kinase still bound, per cent of control: 100%
[33]
  kinase still bound, per cent of control: 88%
[34]
  kinase still bound, per cent of control: 56%
[35]
  kinase still bound, per cent of control: 100%
[36]
  kinase still bound, per cent of control: 100%
[37]
  kinase still bound, per cent of control: 96%
[38]
  kinase still bound, per cent of control: 100%
[39]
  kinase still bound, per cent of control: 100%
[40]
  kinase still bound, per cent of control: 100%
